Laboratory results from the NIST ThermoML archive (doi:10.1021/je049688b).
Numbers after ± are expanded uncertainties.

Conditions: Liquid, Ebulliometric method (Recirculating still)

| Structure (SMILES) | vapor or sublimation pressure (337.75 K) | vapor or sublimation pressure (329.35 K) |
| --- | --- | --- |
| CO [methanol] | 101 ± 1.3 kPa |  |
| CC(C)=O [acetone] |  | 101 ± 1.3 kPa |
